# Data reported in patent US10898481B2 (priority 2018, dated 2021).
# Tests used:
# [1] = target: hADORA1/CHO (hA1 expressing) cells (Homo sapiens (Human), UniProt P30542); test: cell-based; details: FLIPR inhibition, 10 μM adenosine, read-out: cAMP & FLIPR IC50 (nM) hA1
# hA2a/CHO = hA2a/CHO (Homo sapiens (Human), UniProt P29274); test: cAMP inhibition assay in hA2a/CHO cells, 10 μM adenosine; assay type: cell-based; details: read-out: cAMP & FLIPR IC50 (nM) hA2a;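 also: compounds added to cells 30 min ahead of adenosine, then a further 30 min at 37 °C with adenosine before cAMP detection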
# Method: (§1) hA2a/CHO, hA2b/CHO, hA3/CHO and mA2a/CHO (Genscript) were plated at 5×10^3 cells/well into 384-well polystyrene plates at the day of experiment. Compounds were pre-incubated with cells for 30 min at 37° C., 5% CO2. Then 10 μM adenosine was added to the cells and incubated for 30 min at 37° C., 5% CO2. Detection reagent (CISBIO) was added and the plates were incubated for 60 min at room temperature. The signal was captured by Envision.
# hA2b/CHO = hA2b/CHO (Homo sapiens (Human), UniProt P29275); test: cAMP inhibition assay in hA2b/CHO cells, 10 μM adenosine; assay type: cell-based; details: read-out: cAMP & FLIPR IC50 (nM) hA2b;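 also: cells exposed to compound 30 min at 37 °C, then stimulated with adenosine a further 30 min, cAMP read after 60 min at room temperature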
# Method: as §1
# mA2a/CHO = mA2a/CHO (Mus musculus (Mouse), UniProt Q60613); test: cAMP inhibition assay in mA2a/CHO cells, 10 μM adenosine; assay type: cell-based; details: read-out: cAMP & FLIPR IC50 (nM) mA2a;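 also: compounds preincubated 30 min at 37 °C before the adenosine challenge, then 30 min further stimulation, readout after 60 min detection reagent incubation at room temperature in 384-well plates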
# Sequence of mA2a/CHO (Q60613 whole entry): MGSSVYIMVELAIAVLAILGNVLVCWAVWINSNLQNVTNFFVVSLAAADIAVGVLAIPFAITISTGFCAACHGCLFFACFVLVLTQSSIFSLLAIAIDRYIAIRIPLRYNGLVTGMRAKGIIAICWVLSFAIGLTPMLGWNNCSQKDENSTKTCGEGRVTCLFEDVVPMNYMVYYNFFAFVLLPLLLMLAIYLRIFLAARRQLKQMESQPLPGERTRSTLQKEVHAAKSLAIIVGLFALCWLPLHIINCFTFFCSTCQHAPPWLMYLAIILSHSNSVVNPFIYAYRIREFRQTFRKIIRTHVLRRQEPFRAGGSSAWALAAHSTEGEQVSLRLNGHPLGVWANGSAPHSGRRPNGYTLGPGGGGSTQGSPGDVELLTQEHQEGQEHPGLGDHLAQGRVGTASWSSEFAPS
# Method: as §1
# Sequence of hADORA1/CHO (hA1 expressing) cells (P30542 whole entry): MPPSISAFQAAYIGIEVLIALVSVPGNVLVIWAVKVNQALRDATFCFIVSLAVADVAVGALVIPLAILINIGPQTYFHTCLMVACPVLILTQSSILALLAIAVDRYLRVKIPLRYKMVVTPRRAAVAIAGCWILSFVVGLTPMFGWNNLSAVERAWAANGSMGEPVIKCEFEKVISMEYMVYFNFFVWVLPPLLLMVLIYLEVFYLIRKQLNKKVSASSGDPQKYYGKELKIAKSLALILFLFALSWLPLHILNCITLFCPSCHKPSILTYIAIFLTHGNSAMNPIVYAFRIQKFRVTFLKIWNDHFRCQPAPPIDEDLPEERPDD
# Sequence of hA2b/CHO (P29275 whole entry): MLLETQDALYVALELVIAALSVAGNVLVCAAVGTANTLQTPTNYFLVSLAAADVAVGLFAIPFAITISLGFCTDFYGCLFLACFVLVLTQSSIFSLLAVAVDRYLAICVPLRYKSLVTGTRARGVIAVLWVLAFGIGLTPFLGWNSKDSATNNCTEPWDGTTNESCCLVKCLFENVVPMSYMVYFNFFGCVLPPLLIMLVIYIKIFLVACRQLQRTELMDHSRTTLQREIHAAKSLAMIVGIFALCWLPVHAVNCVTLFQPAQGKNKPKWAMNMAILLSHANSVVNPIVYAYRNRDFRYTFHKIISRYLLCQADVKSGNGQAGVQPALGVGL
# Sequence of hA2a/CHO (P29274 whole entry): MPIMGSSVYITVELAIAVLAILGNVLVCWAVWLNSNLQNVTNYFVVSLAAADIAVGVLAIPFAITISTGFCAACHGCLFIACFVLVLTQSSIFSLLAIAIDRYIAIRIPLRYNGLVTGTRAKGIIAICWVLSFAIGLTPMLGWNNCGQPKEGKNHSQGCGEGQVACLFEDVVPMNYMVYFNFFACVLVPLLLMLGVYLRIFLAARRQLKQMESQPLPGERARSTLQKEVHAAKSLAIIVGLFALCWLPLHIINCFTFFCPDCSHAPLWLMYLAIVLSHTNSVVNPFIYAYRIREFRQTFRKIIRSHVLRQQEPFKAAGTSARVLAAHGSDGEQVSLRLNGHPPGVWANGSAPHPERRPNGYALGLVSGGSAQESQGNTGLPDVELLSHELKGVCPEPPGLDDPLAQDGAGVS
SMILES,IC50 [1],IC50 (hA2a/CHO),IC50 (hA2b/CHO),IC50 (mA2a/CHO)
"Cc1cnc2ccc(-c3nc(C(=O)NCC4CN(C)CCO4)c(N)nc3-c3ncco3)cn12 (racemic) [Example 207, rac-3-amino-6-(3-methylimidazo[1,2-a]pyridin-6-yl)-N-((4-methylmorpholin-2-yl)methyl)-5-(oxazol-2-yl)pyrazine-2-carboxamide]",5950 nM,12 nM,774 nM,44 nM
"Cc1cnc2ccc(-c3nc(C(=O)NCC4COCCO4)c(N)nc3-c3ncco3)cn12 (racemic) [Example 211, rac-N-((1,4-dioxan-2-yl)methyl)-3-amino-6-(3-methylimidazo[1,2-a]pyridin-6-yl)-5-(oxazol-2-yl)pyrazine-2-carboxamide]",319 nM,3.6 nM,160 nM,19 nM
"Cc1cnc2ccc(-c3nc(C(=O)NCC4CCC(=O)N4C)c(N)nc3-c3ncco3)cn12 (racemic) [Example 212, rac-3-amino-N-((1-methyl-5-oxopyrrolidin-2-yl)methyl)-6-(3-methylimidazo [1,2-a]pyridin-6-yl)-5-(oxazol-2-yl) pyrazine-2-carboxamide]",> 10000 nM,34 nM,3430 nM,175 nM
"COC(C)CNC(=O)c1nc(-c2ccc3ncc(C)n3c2)c(-c2ncco2)nc1N (racemic) [Example 228, rac-3-amino-N-(2-methoxypropyl)-6-(3-methylimidazo[1,2-a]pyridin-6-yl)-5-(oxazol-2-yl)pyrazine-2-carboxamide]",2020 nM,2.7 nM,210 nM,23 nM
"CN1CCCC1CNC(=O)c1nc(-c2ccc3ncc(C(F)(F)F)n3c2)c(-c2ncco2)nc1N (single isomer, unassigned) [Cmpd. 202, 3-amino-N-[[1-methylpyrrolidin-2-yl]methyl]-5-(1,3-oxazol-2-yl)-6-[3-(trifluoromethyl)imidazo[1,2-a]pyridin-6-yl]pyrazine-2-carboxamide]",6920 nM,17 nM,1130 nM,105 nM
"CN1CCCC1CNC(=O)c1nc(-c2ccc3ncc(C(F)(F)F)n3c2)c(-c2ncco2)nc1N (single isomer, unassigned) [Cmpd. 206]",2490 nM,5.3 nM,707 nM,50 nM
"COc1ccccc1CNC(=O)c1nc(-c2cc(C)nc(C)c2)c(-c2cnn(C)c2)nc1N [Example 63, 3-amino-6-(2,6-dimethylpyridin-4-yl)-N-(2-methoxybenzyl)-5-(1-methyl-1H-pyrazol-4-yl)pyrazine-2-carboxamide]",–,33 nM,≥ 10000 nM,601 nM
"Cc1cc(-c2nc(C(=O)NCc3c(F)cccc3F)c(N)nc2-c2cnn(C)c2)cc(C)n1 [Example 64, 3-amino-N-(2,6-difluorobenzyl)-6-(2,6-dimethylpyridin-4-yl)-5-(1-methyl-1H-pyrazol-4-yl)pyrazine-2-carboxamide]",–,52 nM,≥ 10000 nM,≥ 10000 nM
"COc1ncccc1CNC(=O)c1nc(-c2cc(C)nc(C)c2)c(-c2ccc(F)cc2)nc1N [Example 66, 3-amino-6-(2,6-dimethylpyridin-4-yl)-5-(4-fluorophenyl)-N-((2-methoxypyridin-3-yl)methyl)pyrazine-2-carboxamide]",–,107 nM,≥ 10000 nM,730 nM
"COc1ccccc1CNC(=O)c1nc(-c2ccc(=O)n(C)c2)c(-c2ccc(F)cc2)nc1N [Example 67, 3-amino-5-(4-fluorophenyl)-N-(2-methoxybenzyl)-6-(1-methyl-6-oxo-1,6-dihydropyridin-3-yl)pyrazine-2-carboxamide]",–,6.4 nM,67 nM,25 nM
"COc1ccccc1CNC(=O)c1nc(-c2cc(C)nc(Cl)c2)c(-c2ccc(F)cc2)nc1N [Example 68, 3-amino-6-(2-chloro-6-methylpyridin-4-yl)-5-(4-fluorophenyl)-N-(2-methoxy-benzyl)pyrazine-2-carboxamide]",–,7.5 nM,952 nM,64 nM
"CCn1cc(-c2nc(C(=O)NCc3ccccc3OC)c(N)nc2-c2ccc(F)cc2)ccc1=O [Example 69, 3-amino-6-(1-ethyl-6-oxo-1,6-dihydro-pyridin-3-yl)-5-(4-fluorophenyl)-N-(2-methoxybenzyl)pyrazine-2-carboxamide]",–,15 nM,213 nM,20 nM
"COc1ccccc1CNC(=O)c1nc(-c2ccc(=O)n(C(C)C)c2)c(-c2ccc(F)cc2)nc1N [Example 70, 3-amino-5-(4-fluorophenyl)-6-(1-isopropyl-6-oxo-1,6-dihydropyridin-3-yl)-N-(2-methoxybenzyl)pyrazine-2-carboxamide]",–,10 nM,≥ 10000 nM,5.2 nM
Nc1nc(-c2ccc(F)cc2)c(-c2ccc(=O)n(C3COC3)c2)nc1C(=O)NCc1c(F)cccc1F [Example 77],–,17 nM,358 nM,26 nM
"COc1ccccc1CNC(=O)c1nc(-c2cc(C)c(=O)n(C)c2)c(-c2ccc(F)cc2)nc1N [Example 82, 3-amino-6-(1,5-dimethyl-6-oxo-1,6-dihydropyridin-3-yl)-5-(4-fluorophenyl)-N-(2-methoxybenzyl)pyrazine-2-carboxamide]",–,19 nM,276 nM,59 nM
"COc1ccccc1CNC(=O)c1nc(-c2cc(C)nc(C)c2)c(-c2ccc(F)cc2)nc1N [Example 89, 3-amino-6-(2,6-dimethylpyridin-4-yl)-5-(4-fluorophenyl)-N-(2-methoxybenzyl)pyrazine-2-carboxamide]",–,17 nM,5620 nM,297 nM
"COc1cccc(F)c1CNC(=O)c1nc(-c2cc(C)nc(C)c2)c(-c2ccc(F)cc2)nc1N [Example 90, 3-amino-6-(2,6-dimethylpyridin-4-yl)-N-(2-fluoro-6-methoxybenzyl)-5-(4-fluorophenyl)pyrazine-2-carboxamide]",–,4 nM,781 nM,95 nM
"Cc1cc(-c2nc(C(=O)NCc3ccccc3OC(F)F)c(N)nc2-c2ccc(F)cc2)cc(C)n1 [Example 91, 3-amino-N-(2-(difluoromethoxy)benzyl)-6-(2,6-dimethylpyridin-4-yl)-5-(4-fluorophenyl)pyrazine-2-carboxamide]",–,8.9 nM,1420 nM,72 nM
"COc1ccc(F)cc1CNC(=O)c1nc(-c2cc(C)nc(C)c2)c(-c2ccc(F)cc2)nc1N [Example 92, 3-amino-6-(2,6-dimethylpyridin-4-yl)-N-(5-fluoro-2-methoxybenzyl)-5-(4-fluorophenyl)pyrazine-2-carboxamide]",–,41 nM,≥ 10000 nM,216 nM
"COc1ccccc1CNC(=O)c1nc(-c2cc(C)nc(C)c2)c(-c2ccccc2)nc1N [Example 93, 3-amino-6-(2,6-dimethylpyridin-4-yl)-N-(2-methoxybenzyl)-5-phenylpyrazine-2-carboxamide]",–,8 nM,354 nM,127 nM
"Cc1cnc2ccc(-c3nc(CNC(=O)[C@H]4CCCN4C)c(N)nc3-c3ccc(F)cc3)cn12 [Example 157, (2R)—N-[[3-amino-5-(4-fluorophenyl)-6-[3-methylimidazo[1,2-a]pyridin-6-yl]pyrazin-2-yl]methyl]-1-methylpyrrolidine-2-carboxamide]",–,0.3 nM,59 nM,2.9 nM
